Values quoted from earlier work as cited in US8283517B2, “Transgenic mouse models of Aβ overexpression” (Probiodrug AG, priority 2007, dated 2012).

Experiments:
[1] = test system: QC; conditions: QC catalyzed conversion of Glu-βNA, pH-dependence data
[2] = not given; remark: listed apart in the source

| pKa-value of the α-amino group, determined by titration | kinetically determined pKa-value [1] | pKa-value for the α-amino moiety [2] | pKa-value for the γ-carboxylic moiety ([2]; printed as 7-carboxylic) | SMILES |
| --- | --- | --- | --- | --- |
| 7.57±0.05 | 7.55+/−0.02 |  |  | N[C@@H](CCC(=O)O)C(=O)Nc1ccc2ccccc2c1 [Glu-βNA] |
|  |  | ~7.5 | about 4.2 | N[C@@H](CCC(=O)O)C(=O)O [Glutamate] |
